Measured values as given in patent publication US11787780B2 (CORCEPT THERAPEUTICS INCORPORATED, priority 2020, dated 2023).
pIC50, pKi: −log10 of the molar value.

target: glucocorticoid receptor (GR) recombinant ligand binding domain (LBD) (Homo sapiens (Human), UniProt P04150); test: GR binding fluorescence polarisation (FP) assay; details: displacement of fluorescently tagged ligand
Protocol: Binding of test compounds to the glucocorticoid receptor (GR) is determined using a fluorescence polarisation (FP) assay utilising a recombinant ligand binding domain (LBD) of GR. The test compounds are assessed by their ability to displace a fluorescently tagged ligand and detection of the resulting decrease in fluorescence polarisation.

Chain of glucocorticoid receptor (GR) recombinant ligand binding domain (LBD) (P04150 524-758): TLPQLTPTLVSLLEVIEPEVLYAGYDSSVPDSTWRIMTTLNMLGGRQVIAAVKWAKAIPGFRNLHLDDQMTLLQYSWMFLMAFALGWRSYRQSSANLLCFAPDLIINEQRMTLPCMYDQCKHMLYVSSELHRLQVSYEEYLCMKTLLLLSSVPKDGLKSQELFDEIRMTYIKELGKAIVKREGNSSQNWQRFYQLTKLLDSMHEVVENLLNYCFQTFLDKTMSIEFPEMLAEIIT

pIC50	SMILES
6.03	C[C@@H]1CN(S(=O)(=O)c2cnn(C)c2)CCN1c1ccc2c(cnn2-c2ccc(F)cc2)c1 [Example 1, (R)-1-(4-fluorophenyl)-5-(2-methyl-4-((1-methyl-1H-pyrazol-4-yl)sulfonyl)piperazin-1-yl)-1H-indazole]
6.83	CCCn1cc(S(=O)(=O)N2CCC(c3cc4cnn(-c5ccc(F)cc5)c4cc3C)CC2)cn1 [Example 6, 1-(4-fluorophenyl)-6-methyl-5-(1-((1-propyl-1H-pyrazol-4-yl)sulfonyl)piperidin-4-yl)-1H-indazole]
6.67	CCCn1cc(S(=O)(=O)N2CCC(c3ccc4c(cnn4-c4ccc(F)cc4)c3)C[C@H]2C)cn1 (stereo partly drawn) [Example 8, 1-(4-fluorophenyl)-5-((2R)-2-methyl-1-((1-propyl-1H-pyrazol-4-yl)sulfonyl)piperidin-4-yl)-1H-indazole]
6.67	CCCn1cc(S(=O)(=O)N2CC[C@H](c3ccc4c(cnn4-c4ccc(F)cc4)c3)C[C@H]2C)cn1 [Example 10, 1-(4-fluorophenyl)-5-((2R,4S)-2-methyl-1-((1-propyl-1H-pyrazol-4-yl)sulfonyl)piperidin-4-yl)-1H-indazole]

tested on: induction of TAT by dexamethasone in HepG2 cells; test: Hep G2 TAT assay (inhibition of dexamethasone-induced TAT); format: cell-based, human; details: challenge of 100 nM dexamethasone, IC50 converted to Ki by Cheng and Prusoff equation
Protocol: Glucocorticoid mediated activation of TAT occurs by transactivation of glucocorticoid response elements in the TAT promoter by glucocorticoid receptor-agonist complex. The following protocol describes an assay for measuring induction of TAT by dexamethasone in HepG2 cells (a human liver hepatocellular carcinoma cell line; ECACC, UK).
TAT activity was measured as outlined in the literature by A. Ah et al., J. Med. Chem., 2004, 47, 2441-2452.
HepG2 cells were cultured using MEME media supplemented with 10% (v/v) foetal bovine serum; 2 mM L-glutamine and 1% (v/v) NEAA at 37° C., 5%/95% (v/v) CO2/air. The HepG2 cells were counted and adjusted to yield a density of 0.125×10^6 cells/ml in RPMI 1640 without phenol red, 10% (v/v) charcoal stripped FBS, 2 mM L-glutamine and seeded at 25,000 cells/well in 200 μl into 96 well, sterile, tissue culture micro titre plates, and incubated at 37° C., 5% CO2 for 24 hours
Growth media was removed and replaced with assay media {RPMI 1640 without phenol red, 2 mM L-glutamine+10 μM forskolin}. Test compounds were screened against a challenge of 100 nM dexamethasone. Compounds were serially half log diluted in 100% (v/v) dimethylsulphoxide from a 10 mM stock.
Test compounds were pre-incubated with cells in micro-titre plates for 30 minutes at 37° C., 5/95 (v/v) CO2/air, before the addition of 100 nM dexamethasone and then subsequently for 20 hours to allow optimal TAT induction.
HepG2 cells were then lysed with 30 μl of cell lysis buffer containing a protease inhibitor cocktail for 15 minutes at 4° C. […] After 2 hours incubation at 37° C. the reaction was terminated by the addition of 15 μl of 10M aqueous potassium hydroxide solution, and the plates incubated for a further 30 minutes at 37° C. The TAT activity product was measured by absorbance at λ 340 nm.
[compound] and fitting the data to a 4 parameter logistic equation. IC50 values were converted to Ki (equilibrium dissociation constant) using the Cheng and Prusoff equation, assuming the antagonists were competitive inhibitors with respect to dexamethasone.

SMILES	pKi
C[C@@H]1CN(S(=O)(=O)c2cnn(C)c2)CCN1c1ccc2c(cnn2-c2ccc(F)cc2)c1 [Example 1, (R)-1-(4-fluorophenyl)-5-(2-methyl-4-((1-methyl-1H-pyrazol-4-yl)sulfonyl)piperazin-1-yl)-1H-indazole]	6.23
CCCn1cc(S(=O)(=O)N2CCC(c3cc4cnn(-c5ccc(F)cc5)c4cc3C)CC2)cn1 [Example 6, 1-(4-fluorophenyl)-6-methyl-5-(1-((1-propyl-1H-pyrazol-4-yl)sulfonyl)piperidin-4-yl)-1H-indazole]	6.93
CCCn1cc(S(=O)(=O)N2CCC(c3ccc4c(cnn4-c4ccc(F)cc4)c3)C[C@H]2C)cn1 (stereo partly drawn) [Example 8, 1-(4-fluorophenyl)-5-((2R)-2-methyl-1-((1-propyl-1H-pyrazol-4-yl)sulfonyl)piperidin-4-yl)-1H-indazole]	6.62
CCCn1cc(S(=O)(=O)N2CC[C@H](c3ccc4c(cnn4-c4ccc(F)cc4)c3)C[C@H]2C)cn1 [Example 10, 1-(4-fluorophenyl)-5-((2R,4S)-2-methyl-1-((1-propyl-1H-pyrazol-4-yl)sulfonyl)piperidin-4-yl)-1H-indazole]	6.62
Cc1cc2c(cnn2-c2ccc(=O)n(C(C)C)c2)cc1C1(Cc2ccccc2)CCN(S(=O)(=O)c2cnn(C)n2)C1 (centres unmarked) [Example 269, 5-(5-(3-benzyl-1-((2-methyl-2H-1,2,3-triazol-4-yl)sulfonyl)pyrrolidin-3-yl)-6-methyl-1H-indazol-1-yl)-1-isopropylpyridin-2(1H)-one]	5.89
Cc1cc2c(cnn2-c2ccc(=O)n(C3CC3)c2)cc1C1(Cc2ccccc2)CCN(S(=O)(=O)c2cnn(C)n2)C1 (centres unmarked) [Example 270, 5-(5-(3-benzyl-1-((2-methyl-2H-1,2,3-triazol-4-yl)sulfonyl)pyrrolidin-3-yl)-6-methyl-1H-indazol-1-yl)-1-cyclopropylpyridin-2(1H)-one]	6.22
CCCn1cc(S(=O)(=O)N2CCC(Cc3ccccc3)(c3cc4cnn(C5CCC(=O)N(C)C5)c4cc3C)C2)cn1 (centres unmarked) [Example 273, 5-(5-(3-benzyl-1-((1-propyl-1H-pyrazol-4-yl)sulfonyl)pyrrolidin-3-yl)-6-methyl-1H-indazol-1-yl)-1-methylpiperidin-2-one]	6.55
Cn1ncc(S(=O)(=O)N2CCC(Cc3ccccc3)(c3cc4cnn(-c5ccc(=O)n(C)c5)c4cc3Cl)C2)n1 (centres unmarked) [Example 277, 5-(5-(3-benzyl-1-((2-methyl-2H-1,2,3-triazol-4-yl)sulfonyl)pyrrolidin-3-yl)-6-chloro-1H-indazol-1-yl)-1-methylpyridin-2(1H)-one]	7.27
Cc1cc2c(cnn2-c2ccc(=O)n(C)c2)cc1C1(Cc2ccccc2)CCN(S(=O)(=O)c2cnn(CC(F)(F)F)c2)C1 (centres unmarked) [Example 278, 5-(5-(3-benzyl-1-((1-(2,2,2-trifluoroethyl)-1H-pyrazol-4-yl)sulfonyl)pyrrolidin-3-yl)-6-methyl-1H-indazol-1-yl)-1-methylpyridin-2(1H)-one]	7.36
Cc1cc2c(cnn2-c2ccc(=O)n(C)c2)cc1C1(Cc2ccccc2)CCN(S(=O)(=O)c2cnn(C3CCC3)c2)C1 (centres unmarked) [Example 279, 5-(5-(3-benzyl-1-((1-cyclobutyl-1H-pyrazol-4-yl)sulfonyl)pyrrolidin-3-yl)-6-methyl-1H-indazol-1-yl)-1-methylpyridin-2(1H)-one]	7.30
Cc1cc2c(cnn2-c2ccc(=O)n(C)c2)cc1C1(Cc2ccccc2)CCN(S(=O)(=O)c2cnn(C(F)F)c2)C1 (centres unmarked) [Example 280, 5-(5-(3-benzyl-1-((1-(difluoromethyl)-1H-pyrazol-4-yl)sulfonyl)pyrrolidin-3-yl)-6-methyl-1H-indazol-1-yl)-1-methylpyridin-2(1H)-one]	7.38
COCCn1cc(S(=O)(=O)N2CCC(Cc3ccccc3)(c3cc4cnn(-c5ccc(=O)n(C)c5)c4cc3C)C2)cn1 (centres unmarked) [Example 281, 5-(5-(3-benzyl-1-((1-(2-methoxyethyl)-1H-pyrazol-4-yl)sulfonyl)pyrrolidin-3-yl)-6-methyl-1H-indazol-1-yl)-1-methylpyridin-2(1H)-one]	7.12
Cc1cc2c(cnn2-c2ccc(=O)n(C)c2)cc1C1(Cc2ccccc2)CCN(S(=O)(=O)c2cn(C)nc2C)C1 (centres unmarked) [Example 282, 5-(5-(3-benzyl-1-((1,3-dimethyl-1H-pyrazol-4-yl)sulfonyl)pyrrolidin-3-yl)-6-methyl-1H-indazol-1-yl)-1-methylpyridin-2(1H)-one]	6.92
Cc1cc(S(=O)(=O)N2CCC(Cc3ccccc3)(c3cc4cnn(-c5ccc(=O)n(C)c5)c4cc3C)C2)n(C)n1 (centres unmarked) [Example 283, 5-(5-(3-benzyl-1-((1,3-dimethyl-1H-pyrazol-5-yl)sulfonyl)pyrrolidin-3-yl)-6-methyl-1H-indazol-1-yl)-1-methylpyridin-2(1H)-one]	7.19
Cc1cc2c(cnn2-c2ccc(=O)n(C)c2)cc1C1(Cc2ccccc2)CCN(S(=O)(=O)c2cnn(C)c2C)C1 (centres unmarked) [Example 284, 5-(5-(3-benzyl-1-((1,5-dimethyl-1H-pyrazol-4-yl)sulfonyl)pyrrolidin-3-yl)-6-methyl-1H-indazol-1-yl)-1-methylpyridin-2(1H)-one]	7.24
Cc1cc2c(cnn2-c2ccc(=O)n(C)c2)cc1C1(Cc2ccccc2)CCN(S(=O)(=O)c2nccn2C)C1 (centres unmarked) [Example 285, 5-(5-(3-benzyl-1-((1-methyl-1H-imidazol-2-yl)sulfonyl)pyrrolidin-3-yl)-6-methyl-1H-indazol-1-yl)-1-methylpyridin-2(1H)-one]	7.09
CCn1cc(S(=O)(=O)N2CCC(Cc3ccccc3)(c3cc4cnn(-c5ccc(=O)n(C)c5)c4cc3C)C2)nn1 (centres unmarked) [Example 291, 5-(5-(3-benzyl-1-((1-ethyl-1H-1,2,3-triazol-4-yl)sulfonyl)pyrrolidin-3-yl)-6-methyl-1H-indazol-1-yl)-1-methylpyridin-2(1H)-one]	6.96
Cc1cc2c(cnn2-c2ccc(=O)n(C)c2)cc1C1(Cc2ccccc2)CCN(S(=O)(=O)c2cnn(CC(C)C)c2)C1 (centres unmarked) [Example 319, 5-(5-(3-benzyl-1-((1-isobutyl-1H-pyrazol-4-yl)sulfonyl)pyrrolidin-3-yl)-6-methyl-1H-indazol-1-yl)-1-methylpyridin-2(1H)-one]	7.34
CCc1cc2c(cnn2-c2ccc(=O)n(C)c2)cc1C1(Cc2ccccc2)CCN(S(=O)(=O)c2cnn(C)n2)C1 (centres unmarked) [Example 333, 5-(5-(3-benzyl-1-((2-methyl-2H-1,2,3-triazol-4-yl)sulfonyl)pyrrolidin-3-yl)-6-ethyl-1H-indazol-1-yl)-1-methylpyridin-2(1H)-one]	7.39
Cn1ncc(S(=O)(=O)N2CCC(Cc3ccccc3)(c3cc4cnn(-c5ccc(F)cc5)c4cc3C#N)C2)n1 (centres unmarked) [Example 334, 5-(3-benzyl-1-((2-methyl-2H-1,2,3-triazol-4-yl)sulfonyl)pyrrolidin-3-yl)-1-(4-fluorophenyl)-1H-indazole-6-carbonitrile]	7.28
Cc1cc2c(cnn2-c2ccc(F)cc2)cc1C1(/C=C/c2ccccc2)CCN(S(=O)(=O)c2cnn(C)c2)C1 (centres unmarked) [Example 342, (E)-1-(4-fluorophenyl)-6-methyl-5-(1-((1-methyl-1H-pyrazol-4-yl)sulfonyl)-3-styrylpyrrolidin-3-yl)-1H-indazole]	6.96
Cc1cc2c(cnn2-c2ccc(F)cc2)cc1C1(CCc2ccccc2)CCN(S(=O)(=O)c2cnn(C)c2)C1 (centres unmarked) [Example 343, 1-(4-fluorophenyl)-6-methyl-5-(1-((1-methyl-1H-pyrazol-4-yl)sulfonyl)-3-phenethylpyrrolidin-3-yl)-1H-indazole]	6.92
Cc1cc2c(cnn2-c2ccc(F)cc2)cc1C1(COc2ccccc2)CCN(S(=O)(=O)c2cnn(C)c2)C1 (centres unmarked) [Example 344, 1-(4-fluorophenyl)-6-methyl-5-(1-((1-methyl-1H-pyrazol-4-yl)sulfonyl)-3-(phenoxymethyl)pyrrolidin-3-yl)-1H-indazole]	7.01
Cc1cc2c(cnn2-c2ccc(F)cc2)cc1C1(C(=O)c2ccccc2)CCN(S(=O)(=O)c2cnn(C)c2)C1 (centres unmarked) [Example 345, (3-(1-(4-fluorophenyl)-6-methyl-1H-indazol-5-yl)-1-((1-methyl-1H-pyrazol-4-yl)sulfonyl)pyrrolidin-3-yl)(phenyl)methanone]	6.66
Cc1cc2c(cnn2-c2ccc(F)cc2)cc1C1(CCCc2ccccc2)CCN(S(=O)(=O)c2cnn(C)c2)C1 (centres unmarked) [Example 346, 1-(4-fluorophenyl)-6-methyl-5-(1-((1-methyl-1H-pyrazol-4-yl)sulfonyl)-3-(3-phenylpropyl)pyrrolidin-3-yl)-1H-indazole]	6.85
